Results reported in ChEMBL document CHEMBL1201862, “PubChem BioAssay data set” (2004).
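Five compound concentrations were applied to cells in 96-well plates for 48 hours; endpoints were derived by simple linear interpolation of the resulting dose-response curve. GI50 marks 50% less growth.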 Activity calls are given as the source filed them. No stated cut-off is given here; in the data, active = GI50 up to about 1.1 µM and inactive = higher.

Assays:
Experiment in all cases: NCI-60 cell line screen, 48 h
786-0 = system: 786-0
A498 = system: A498
A549 = system: A549
ACHN = system: ACHN
BT-549 = system: BT-549
CAKI-1 = system: CAKI-1
CCRF-CEM = system: CCRF-CEM
COLO 205 = system: COLO 205
DU-145 = system: DU-145
EKVX = system: EKVX
HCC 2998 = system: HCC 2998
HCT-116 = system: HCT-116
HCT-15 = system: HCT-15
HL-60 = system: HL-60
HOP-62 = system: HOP-62
HOP-92 = system: HOP-92
HT-29 = system: HT-29
Hs-578T = system: Hs-578T
IGROV-1 = system: IGROV-1
K562 = system: K562
KM12 = system: KM12
LOX IMVI = system: LOX IMVI
M14 = system: M14
MCF7 = system: MCF7
MDA-MB-231 = system: MDA-MB-231
MDA-MB-435 = system: MDA-MB-435
MDA-N = system: MDA-N
MOLT-4 = system: MOLT-4
Malme-3M = system: Malme-3M
NCI-H226 = system: NCI-H226
NCI-H23 = system: NCI-H23
NCI-H460 = system: NCI-H460
NCI-H522 = system: NCI-H522
NCI/ADR-RES = system: NCI/ADR-RES
OVCAR-3 = system: OVCAR-3
OVCAR-4 = system: OVCAR-4
OVCAR-5 = system: OVCAR-5
OVCAR-8 = system: OVCAR-8
PC-3 = system: PC-3
RPMI-8226 = system: RPMI-8226
RXF 393 = system: RXF 393
SF-268 = system: SF-268
SF-295 = system: SF-295
SF-539 = system: SF-539
SK-MEL-28 = system: SK-MEL-28
SK-MEL-2 = system: SK-MEL-2
SK-MEL-5 = system: SK-MEL-5
SK-OV-3 = system: SK-OV-3
SN12C = system: SN12C
SNB-19 = system: SNB-19
SNB-75 = system: SNB-75
SR = system: SR
SW-620 = system: SW-620
T47D = system: T47D
TK-10 = system: TK-10
U-251 = system: U-251
UACC-257 = system: UACC-257
UACC-62 = system: UACC-62
UO-31 = system: UO-31

O=C(Oc1cccnc1)c1cc2cc(CCl)ccc2oc1=O
GI50 (786-0): 18.5 µM (inactive)
GI50 (A498): 48.5 µM (inactive)
GI50 (A549): 65.3 µM (inactive)
GI50 (ACHN): 18.9 µM (inactive)
GI50 (BT-549): 24.8 µM (inactive)
GI50 (CAKI-1): 18.7 µM (inactive)
GI50 (CCRF-CEM): 20.7 µM (inactive)
GI50 (COLO 205): 27.2 µM (inactive)
GI50 (DU-145): 18.8 µM (inactive)
GI50 (EKVX): 21.5 µM (inactive)
GI50 (HCC 2998): 57.7 µM (inactive)
GI50 (HCT-116): 17.7 µM (inactive)
GI50 (HCT-15): 23.8 µM
GI50 (HL-60): 22.8 µM (inactive)
GI50 (HOP-62): 76.2 µM (inactive)
GI50 (HOP-92): 20.6 µM (inactive)
GI50 (HT-29): 17.1 µM (inactive)
GI50 (Hs-578T): 25.4 µM (inactive)
GI50 (IGROV-1): 25.5 µM (inactive)
GI50 (K562): 19.5 µM (inactive)
GI50 (KM12): 31.6 µM (inactive)
GI50 (LOX IMVI): 21 µM (inactive)
GI50 (M14): 21.4 µM (inactive)
GI50 (MCF7): 3.15 µM (inactive)
GI50 (MDA-MB-231): 20.8 µM (inactive)
GI50 (MDA-MB-435): 25.9 µM (inactive)
GI50 (MDA-N): 26.5 µM (inactive)
GI50 (MOLT-4): 23.3 µM (inactive)
GI50 (Malme-3M): 22.7 µM (inactive)
GI50 (NCI-H226): 66.1 µM (inactive)
GI50 (NCI-H23): 19.6 µM (inactive)
GI50 (NCI-H460): 31 µM (inactive)
GI50 (NCI-H522): 17 µM (inactive)
GI50 (NCI/ADR-RES): 29.5 µM (inactive)
GI50 (OVCAR-3): 25.5 µM (inactive)
GI50 (OVCAR-4): 24.3 µM (inactive)
GI50 (OVCAR-5): 22.6 µM (inactive)
GI50 (OVCAR-8): 33.5 µM (inactive)
GI50 (PC-3): 17.3 µM (inactive)
GI50 (RPMI-8226): 24.5 µM (inactive)
GI50 (RXF 393): 16.4 µM (inactive)
GI50 (SF-268): 20.8 µM (inactive)
GI50 (SF-295): > 100 µM (inactive)
GI50 (SF-539): 44.2 µM (inactive)
GI50 (SK-MEL-28): 32.4 µM (inactive)
GI50 (SK-MEL-2): 21.7 µM (inactive)
GI50 (SK-MEL-5): 44.6 µM (inactive)
GI50 (SK-OV-3): > 100 µM (inactive)
GI50 (SN12C): 21.6 µM (inactive)
GI50 (SNB-19): 61.9 µM (inactive)
GI50 (SNB-75): 29.7 µM (inactive)
GI50 (SR): 24 µM (inactive)
GI50 (SW-620): 35.3 µM (inactive)
GI50 (T47D): 23.3 µM (inactive)
GI50 (TK-10): 20.8 µM (inactive)
GI50 (U-251): 24.3 µM (inactive)
GI50 (UACC-257): 30.6 µM (inactive)
GI50 (UACC-62): 8.71 µM (inactive)
GI50 (UO-31): 20 µM (inactive)

O=C1NCN(c2ccccc2)C12CCN(CCCN1CCN(CCOC(c3ccccc3)c3ccccc3)CC1)CC2
GI50 (786-0): 0.753 µM (active)
GI50 (A498): 3.36 µM (inactive)
GI50 (A549): 4.14 µM (inactive)
GI50 (ACHN): 2.5 µM (inactive)
GI50 (BT-549): 3.92 µM (inactive)
GI50 (CAKI-1): 3.78 µM (inactive)
GI50 (CCRF-CEM): 0.859 µM (active)
GI50 (COLO 205): 1.18 µM (inactive)
GI50 (DU-145): 3.59 µM (inactive)
GI50 (EKVX): 3.68 µM (inactive)
GI50 (HCC 2998): 0.501 µM (active)
GI50 (HCT-116): 2.33 µM (inactive)
GI50 (HCT-15): 1.86 µM
GI50 (HL-60): 1.18 µM (inactive)
GI50 (HOP-62): 3.25 µM (inactive)
GI50 (HOP-92): 1.93 µM (inactive)
GI50 (HT-29): 1.11 µM (active)
GI50 (Hs-578T): 3.48 µM (inactive)
GI50 (IGROV-1): 4.03 µM (inactive)
GI50 (K562): 0.447 µM (active)
GI50 (KM12): 2.87 µM (inactive)
GI50 (LOX IMVI): 3.01 µM (inactive)
GI50 (M14): 1.08 µM (active)
GI50 (MCF7): 3.11 µM (inactive)
GI50 (MDA-MB-231): 3.52 µM (inactive)
GI50 (MDA-MB-435): 0.923 µM (active)
GI50 (MDA-N): 0.8 µM (active)
GI50 (MOLT-4): 2.13 µM (inactive)
GI50 (Malme-3M): 2.23 µM (inactive)
GI50 (NCI-H226): 2.96 µM (inactive)
GI50 (NCI-H23): 3.94 µM (inactive)
GI50 (NCI-H460): 3.84 µM (inactive)
GI50 (NCI-H522): 1.73 µM (inactive)
GI50 (NCI/ADR-RES): 4.54 µM (inactive)
GI50 (OVCAR-3): 3.54 µM (inactive)
GI50 (OVCAR-4): 3.53 µM (inactive)
GI50 (OVCAR-5): 5.08 µM (inactive)
GI50 (OVCAR-8): 3.33 µM (inactive)
GI50 (PC-3): 3.99 µM (inactive)
GI50 (RPMI-8226): 1.67 µM (inactive)
GI50 (RXF 393): 1.5 µM (inactive)
GI50 (SF-268): 2.4 µM (inactive)
GI50 (SF-295): 2.69 µM (inactive)
GI50 (SF-539): 1.25 µM (inactive)
GI50 (SK-MEL-28): 1.34 µM (inactive)
GI50 (SK-MEL-2): 3.11 µM (inactive)
GI50 (SK-MEL-5): 1.28 µM (inactive)
GI50 (SK-OV-3): 3.75 µM (inactive)
GI50 (SN12C): 3.82 µM (inactive)
GI50 (SNB-19): 3.94 µM (inactive)
GI50 (SNB-75): 2.18 µM (inactive)
GI50 (SR): 0.561 µM (active)
GI50 (SW-620): 2.62 µM (inactive)
GI50 (T47D): 3.02 µM (inactive)
GI50 (TK-10): 3.83 µM (inactive)
GI50 (U-251): 4.07 µM (inactive)
GI50 (UACC-257): 1.47 µM (inactive)
GI50 (UACC-62): 4.27 µM (inactive)
GI50 (UO-31): 1.5 µM (inactive)
